Test results published in patent US9387209B2, “Histone deacetylases (HDACs) inhibitors” (ANNJI PHARMACEUTICAL CO., LTD., priority 2012, dated 2016).

Key:
[1] = molecular target: T1, zinc-mediated β-amyloid aggregation (Homo sapiens, UniProt P05067); assay: Anti-amyloid aggregation assay, BCA; assay type: biochemical; conditions: detected by BCA
Experimental: (§1) Anti-Amyloid Aggregation Assay.
(§2) The effects of compounds on inhibition of β-amyloid aggregation were assayed. The levels of β-amyloid aggregates were determined by thioflavin S, BCA or CR assays (Tables 1). Thioflavin S, and Congo red are for in vitro staining of aggregated β-amyloid. Bicinchoninic acid (BCA) assay determines the total protein level or concentration.

[2] = molecular target: T1, zinc-mediated β-amyloid aggregation; assay: Anti-amyloid aggregation assay, CR (Congo red); assay type: biochemical; conditions: detected by CR
Experimental: as §1, §2

[3] = molecular target: T2, human histone deacetylases (HDAC) 6 (Homo sapiens, UniProt Q9UBN7); assay: HDAC enzymatic assay, HDAC6; assay type: biochemical; conditions: for IC50: HDAC6, read-out: IC50 HDAC6 (grading); for selective inhibitions on HDAC6: HDAC6 versus other HDACs
T2 sequence (Q9UBN7 1-1215): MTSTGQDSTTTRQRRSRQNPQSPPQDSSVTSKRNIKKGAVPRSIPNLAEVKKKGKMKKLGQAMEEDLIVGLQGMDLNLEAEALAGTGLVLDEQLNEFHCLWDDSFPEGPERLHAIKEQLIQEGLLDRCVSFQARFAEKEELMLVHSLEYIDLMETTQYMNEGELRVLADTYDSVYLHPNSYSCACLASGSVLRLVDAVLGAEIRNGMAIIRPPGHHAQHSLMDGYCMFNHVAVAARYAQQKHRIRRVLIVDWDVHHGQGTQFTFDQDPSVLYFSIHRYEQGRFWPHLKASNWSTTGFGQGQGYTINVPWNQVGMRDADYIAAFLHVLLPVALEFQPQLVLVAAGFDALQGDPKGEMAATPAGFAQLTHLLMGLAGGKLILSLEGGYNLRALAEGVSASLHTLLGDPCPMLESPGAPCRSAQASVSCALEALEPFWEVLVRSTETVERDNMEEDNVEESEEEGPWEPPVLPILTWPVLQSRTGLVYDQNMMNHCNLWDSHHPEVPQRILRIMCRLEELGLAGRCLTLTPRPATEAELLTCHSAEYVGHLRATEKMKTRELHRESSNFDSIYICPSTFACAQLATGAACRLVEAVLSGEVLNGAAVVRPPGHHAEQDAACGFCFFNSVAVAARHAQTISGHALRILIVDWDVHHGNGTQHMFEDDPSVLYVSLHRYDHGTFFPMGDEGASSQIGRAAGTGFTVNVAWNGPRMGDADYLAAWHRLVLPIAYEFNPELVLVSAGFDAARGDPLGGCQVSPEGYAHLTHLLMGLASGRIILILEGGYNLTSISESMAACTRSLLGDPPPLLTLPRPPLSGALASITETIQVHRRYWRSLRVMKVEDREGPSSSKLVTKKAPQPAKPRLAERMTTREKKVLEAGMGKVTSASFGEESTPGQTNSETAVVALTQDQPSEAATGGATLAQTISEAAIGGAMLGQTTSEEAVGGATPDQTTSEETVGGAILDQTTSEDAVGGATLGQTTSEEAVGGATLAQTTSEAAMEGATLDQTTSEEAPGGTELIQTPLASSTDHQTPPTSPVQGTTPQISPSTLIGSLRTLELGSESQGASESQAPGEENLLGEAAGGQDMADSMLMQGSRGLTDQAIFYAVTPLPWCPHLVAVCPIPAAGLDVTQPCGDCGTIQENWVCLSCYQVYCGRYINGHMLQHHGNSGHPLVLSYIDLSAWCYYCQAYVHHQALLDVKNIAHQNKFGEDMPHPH

SH-SY5Y cells [4] = assay: Neurite synaptic uptake activity (FM1-43), SH-SY5Y; assay type: cell-based; conditions: Homo sapiens, NGF positive control taken as 100%, read-out: uptake of dye FM1-43 EC50
Experimental: (§3) Neurite Synaptic Uptake Activity Analysis.
(§4) The effects of compounds on the neuronal synapse uptake of fluorescent indicator FM1-43 were assayed. The uptake of the dye indicated the synaptic function of the neurites. PC 12 and SH-SY5Y cells were used. Cells in experimental groups were treated with a test compound and FM1-43; Cells in positive control were treated with NGF and FM1-43; Cells in negative control were treated with a vehicle and FM1-43. The fluorescence in the positive control were taken as 100%.

[5] = molecular target: human histone deacetylases (HDAC) 1 (Homo sapiens, UniProt Q13547); assay: HDAC enzymatic assay, HDAC1; assay type: biochemical; conditions: read-out: IC50 HDAC1 (grading)
PC 12 cells [6] = assay: Neurite synaptic uptake activity (FM1-43), PC 12; assay type: cell-based; conditions: Rattus norvegicus, NGF positive control taken as 100%, read-out: uptake of dye FM1-43 EC50
Experimental: as §3, §4

[7] = molecular target: T3, human histone deacetylases (HDAC) 8 (Homo sapiens, UniProt Q9BY41); assay: HDAC enzymatic assay, HDAC8; assay type: biochemical; conditions: HDAC8; read-out: IC50 HDAC8 (grading)
T3 sequence (Q9BY41 1-377): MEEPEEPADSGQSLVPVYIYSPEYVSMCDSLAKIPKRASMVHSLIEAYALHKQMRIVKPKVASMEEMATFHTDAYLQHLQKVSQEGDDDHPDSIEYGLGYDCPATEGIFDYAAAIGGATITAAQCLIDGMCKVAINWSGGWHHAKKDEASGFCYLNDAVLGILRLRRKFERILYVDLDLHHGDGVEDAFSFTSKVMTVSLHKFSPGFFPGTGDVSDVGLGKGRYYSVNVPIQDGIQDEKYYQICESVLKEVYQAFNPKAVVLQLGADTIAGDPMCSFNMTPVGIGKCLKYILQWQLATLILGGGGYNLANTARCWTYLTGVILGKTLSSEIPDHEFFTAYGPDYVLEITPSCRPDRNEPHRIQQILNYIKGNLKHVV

SH-SY5Y cells [8] = assay: Neurite outgrowth assay, SH-SY5Y; assay type: cell-based; conditions: Homo sapiens
[9] = molecular target: T1, zinc-mediated β-amyloid aggregation; assay: Anti-amyloid aggregation assay, thioflavin S; assay type: biochemical; conditions: detected by thioflavin S
Experimental: as §1, §2

PC 12 cells [10] = assay: Neurite outgrowth assay, PC 12; assay type: cell-based; conditions: Rattus norvegicus
[11] = MTT or SRB assay for cytotoxicity, PANC1; assay type: cell-based; conditions: human, PANC-1 cells, read-out: cytotoxicity IC50 (grading) PANC1
Experimental: (§5) MTT or SRB Assays for Cytotoxicities of HDAC Inhibitors.
(§6) These compounds were assayed for cytotoxicities to the following cells: A549 cells (adenocarcinomic human alveolar basal epithelial cells), HCT-116 cells (human colon carcinoma cells). PANC-1 cells (human pancreatic carcinoma, epithelial-like cell line) and HepG2 cells (human liver hepatocellular carcinoma cell line), neuronal cells PC12 (rat pheochromocytoma cell line) and SH-SY5Y (human neuroblastoma cell line). MTT (3-[4,5-dimethylthiazol-2-yl]2,5-diphenyl-tetrazolium bromide) reduction was collaborated by using trypan blue exclusion assay.

[12] = MTT or SRB assay for cytotoxicity, HCT116; assay type: cell-based; conditions: human, HCT-116 cells, read-out: cytotoxicity IC50 (grading) HCT116
Experimental: as §5, §6

[13] = MTT or SRB assay for cytotoxicity, HepG2; assay type: cell-based; conditions: human, HepG2 cells, read-out: cytotoxicity IC50 (grading) HepG2
Experimental: as §5, §6

[14] = MTT or SRB assay for cytotoxicity, A549; assay type: cell-based; conditions: human, A549 cells, read-out: cytotoxicity IC50 (grading) A549
Experimental: as §5, §6

Sequence of human histone deacetylases (HDAC) 1 (Q13547 whole entry): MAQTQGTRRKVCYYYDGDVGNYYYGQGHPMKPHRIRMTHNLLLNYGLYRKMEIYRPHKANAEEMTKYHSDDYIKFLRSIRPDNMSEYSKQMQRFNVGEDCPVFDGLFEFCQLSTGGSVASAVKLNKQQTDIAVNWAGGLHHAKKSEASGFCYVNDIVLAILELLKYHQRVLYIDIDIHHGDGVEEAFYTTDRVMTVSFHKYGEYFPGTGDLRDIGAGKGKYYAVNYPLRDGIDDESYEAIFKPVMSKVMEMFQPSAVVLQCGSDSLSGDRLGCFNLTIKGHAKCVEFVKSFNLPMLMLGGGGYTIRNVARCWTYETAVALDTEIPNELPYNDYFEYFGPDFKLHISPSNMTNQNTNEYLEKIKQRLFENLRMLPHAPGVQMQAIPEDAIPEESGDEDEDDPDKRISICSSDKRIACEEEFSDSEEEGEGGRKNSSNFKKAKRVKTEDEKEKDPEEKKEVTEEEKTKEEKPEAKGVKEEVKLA
T1 sequence (P05067 672-711 limits assumed): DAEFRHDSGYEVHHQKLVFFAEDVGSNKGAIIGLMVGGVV

| Compound | IC50 [1] | IC50 [2] | IC50 [3] | EC50 (SH-SY5Y cells [4]) | IC50 [5] | EC50 (PC 12 cells [6]) | IC50 [7] | selective inhibitions on HDAC6 [3] | EC50 (SH-SY5Y cells [8]) | IC50 [9] | EC50 (PC 12 cells [10]) | melting point | IC50 [11] | IC50 [12] | IC50 [13] | IC50 [14] |
| --- | --- | --- | --- | --- | --- | --- | --- | --- | --- | --- | --- | --- | --- | --- | --- | --- |
| Cc1nc2cccc(/C=C/C(=O)NO)c2c(=O)n1-c1ccccc1 [Compound 1a, (2E)-3-(3,4-dihydro-2-methyl-4-oxo-3-phenylquinazolin-5-yl)-N-hydroxyacrylamide] | 10.1 µM | 30.2 µM | < 0.1 µM | 14.7 ± 1.58 µM | > 10 µM | 8.15 ± 0.39 µM | 1 to 10 µM |  |  |  |  |  |  |  |  |  |
| Cc1nc2ccc(/C=C/C(=O)NO)cc2c(=O)n1-c1ccccc1 [Compound 1b, (2E)-3-(3,4-dihydro-2-methyl-4-oxo-3-phenylquinazolin-6-yl)-N-hydroxyacrylamide] | 10.1 µM | 4.8 µM | < 0.1 µM |  | 1 to 10 µM |  | 0.1 to 1 µM | selective inhibitions on HDAC6 |  |  |  |  |  |  |  |  |
| Cc1nc2c(/C=C/C(=O)NO)cccc2c(=O)n1-c1ccccc1 [Compound 1d, (2E)-3-(3,4-dihydro-2-methyl-4-oxo-3-phenylquinazolin-8-yl)-N-hydroxyacrylamide] | 11.7 µM | 14.5 µM | 0.1 to 1 µM | 8.03 ± 0.53 µM | > 10 µM | 7.81 ± 0.65 µM | 0.1 to 1 µM |  |  |  |  |  |  |  |  |  |
| Cc1nc2cc(/C=C/C(=O)NO)ccc2c(=O)n1Cc1ccccc1 [Compound 1e, (2E)-3-(3-benzyl-3,4-dihydro-2-methyl-4-oxoquinazolin-7-yl)-N-hydroxyacrylamide] | 10.6 µM | 5.8 µM | < 0.1 µM | 8.2 ± 0.92 µM | 1 to 10 µM | 8.21 ± 0.37 µM | 1 to 10 µM | selective inhibitions on HDAC6 | 8.2 ± 0.92 µM | 18.1 µM | 8.21 ± 0.37 µM |  |  |  |  |  |
| Cc1nc2cc(/C=C/C(=O)NO)ccc2c(=O)n1CCc1c[nH]c2ccccc12 [Compound 1g, (2E)-3-(3-(2-(1H-indol-3-yl)ethyl)-3,4-dihydro-2-methyl-4-oxoquinazolin-7-yl)-N-hydroxyacrylamide] | 11.1 µM | 15.5 µM | < 0.1 µM |  | 0.1 to 1 µM |  | 1 to 10 µM | selective inhibitions on HDAC6 |  | 7.4 µM |  |  |  |  |  |  |
| O=C(/C=C/c1ccc2c(=O)n(CCc3ccccc3)cnc2c1)NO [Compound 1h, (2E)-3-(3,4-dihydro-4-oxo-3-phenethylquinazolin-7-yl)-N-hydroxyacrylamide] | 35 µM | 14.6 µM | < 0.1 µM | 4.93 ± 1.34 µM | 0.1 to 1 µM | 14.5 ± 1.47 µM | 0.1 to 1 µM | selective inhibitions on HDAC6 | 4.93 ± 1.34 µM | 5.5 µM | 14.5 ± 1.47 µM | 197 to 199 °C (dec.) |  |  |  |  |
| CCc1nc2cc(/C=C/C(=O)NO)ccc2c(=O)n1CCc1ccccc1 [Compound 1i, (2E)-3-(2-ethyl-3,4-dihydro-4-oxo-3-phenethylquinazolin-7-yl)-N-hydroxyacrylamide] | 3.9 µM | 5.5 µM | < 0.1 µM | 0.88 ± 0.45 µM | 1 to 10 µM | 7.21 ± 0.32 µM | 1 to 10 µM | selective inhibitions on HDAC6 | 0.88 ± 0.45 µM | 6.8 µM | 7.21 ± 0.32 µM | 209 to 211 °C | ≥ 10 µM | ≥ 10 µM | 1 to 10 µM | ≥ 10 µM |
| CCc1nc2cc(/C=C/C(=O)NO)ccc2c(=O)n1CCc1ccc(OC)cc1 [Compound 1m] |  |  | < 0.1 µM | 20.6 ± 2.51 µM | 1 to 10 µM | 20.6 ± 3.12 µM | 0.1 to 1 µM |  | 20.6 ± 2.51 µM |  | 20.6 ± 3.12 µM | 215 to 217 °C | 1 to 10 µM | 1 to 10 µM | 1 to 10 µM | 1 to 10 µM |
| CCc1nc2cc(/C=C/C(=O)NO)ccc2c(=O)n1CCc1ccc(F)cc1 [Compound 1n, (2E)-3-(3-(4-fluorophenethyl)-2-ethyl-3,4-dihydro-4-oxoquinazolin-7-yl)-N-hydroxyacrylamide] |  |  | < 0.1 µM | 22.2 ± 2.01 µM | 1 to 10 µM | 13.9 ± 0.94 µM | 0.1 to 1 µM |  | 22.2 ± 2.01 µM |  | 13.9 ± 0.94 µM | 195 to 197 °C (dec.) | 1 to 10 µM | 1 to 10 µM | 1 to 10 µM | 1 to 10 µM |
